From patent US20250360091A1, “COMBINATION OF SGLT2 INHIBITOR AND MENTHOL AND USE THEREOF IN TREATMENT OF HEART DISEASE” (EAST CHINA UNIVERSITY OF SCIENCE AND TECHNOLOGY, priority 2023, published 2025) come the findings set out here.

Each structure is given as a SMILES string.

The subject of test [1] is Rat myocardial cells (H9c2). The experiment in a line: Glucose deprivation (GD)-induced myocardial cell injury model, cck8 cell survival, checkerboard (Example 1). It is filed as cell-based. The note with it: empagliflozin used alone; GD 36-48 h.
Experimental: In this example, a glucose deprivation (GD)-induced myocardial cell injury model was used to evaluate the protective effect of the drug composition on myocardial cells. Rat myocardial cells (H9c2) were purchased from the stem cell bank of the Chinese Academy of Sciences. Myocardial cells were cultured in high-glucose DMEM (containing 10% fetal bovine serum, 1% penicillin/streptomycin) culture medium and placed in an incubator at 37° C. and 5% CO2. After the myocardial cells basically covered the cell culture dish (10 cm), the cells were digested with trypsin and planted in a 96-well plate at a cell density of 8000 cells/well, 100 μL per well. When the cells covered the bottom of the dish, the DMEM culture medium was removed and the plate was washed once with PBS. The compound was diluted to the target concentration with sugar-free and serum-free DMEM, added to the plate, and treated with GD. […] The cell survival rates of empagliflozin (EMPA) 0-100 μM, L-menthol (MEN) 0-200 μM and combined concentrations were tested, and the cell survival rates of single drugs and combined drugs were input into CompuSyn (http://www.combosyn.com) to calculate the synergistic coefficient.
For the next test, the system named is H9c2 cells. The experiment in a line: GD-induced injury: LDH release and crystal violet staining (Example 2). It is filed as cell-based, Rat. The note with it: empagliflozin 100 μM and 200 μM; GD 48 h. The procedure:
To further verify the anti-heart failure efficacy of the drug composition, H9c2 cells were seeded into 24-well plates. After the cells covered the bottom of the dish, the high-glucose DMEM was removed, the plate was washed once with PBS, and empagliflozin alone and different concentrations of the drug composition were prepared with sugar-free and serum-free DMEM medium, and added to the cells for glucose deprivation treatment. For the GD group, sugar-free and serum-free DMEM medium without drugs was added. For the NG group, high-glucose DMEM containing serum was continued to be added for culture. After 48 hours of glucose deprivation treatment, 50 μL of culture medium was taken to a 96-well plate, and the release of LDH in the culture medium was detected using an LDH detection kit. The culture medium was removed, the cells were placed on ice, and washed twice with pre-cooled PBS for 3 to 5 minutes each time. The cells were fixed with pre-cooled methanol at −20° C. for 10 minutes. Methanol was removed and the cells were returned to room temperature. […] The cells were placed in a 37° C. oven for drying, photographed under a microscope, and the staining was quantified by Image J. The larger the purple area, the more cells survived, and the more LDH was released, which indicated more cell damage. […]

`OC[C@H]1O[C@@H](c2ccc(Cl)c(Cc3ccc(O[C@H]4CCOC4)cc3)c2)[C@H](O)[C@@H](O)[C@@H]1O` [empagliflozin]: the “effective concentration of empagliflozin (cell survival)” value in test [1] amounted to 50 µM. Also, the “cell survival rate (crystal violet purple area, LDH release)” value in the test with H9c2 cells was “significantly increases the cell survival rate in a dose-dependent manner”.
